Among the data in the RepoRT retention time repository are LC retention time values, retold here.

This data set in a line: HILIC, Waters ACQUITY UPLC BEH Amide, 100 × 2.1 mm, 1.7 µm; A: water + 0.125% formic acid + 10 mM ammonium formate; B: 5% water + 95% acetonitrile + 0.125% formic acid + 10 mM ammonium formate; gradient (min/%B) 0/100 2/100 7.7/70 9.5/40 10.25/30 12.75/100 17/100. The settings on record: stereoisomer not certain.
Regarding `O=c1cnn(C2OC(CO)C(O)C2O)c(=O)[nH]1` (stereo not given) [6-Azuridine], the LC retention time was found to be 4.31 min.

Take `O=C(O)CCCCCO` [6-Hydroxycaproic acid]: the LC retention time worked out at 1.34 min.

As for `O=c1cc(-c2ccccc2)oc2ccc(O)cc12` [6-Hydroxyflavone], the LC retention time was 1.26 min.

Consider `CC(C)=CCCC(C)O` (stereo not given) [6-Methyl-5-hepten-2-ol], for which the LC retention time amounted to 7.3 min.

As to `CNc1ncnc2c1ncn2C1OC(CO)C(O)C1O` (stereo not given) [6-Methyladenosine], the LC retention time was 3.56 min.

Consider `CSc1ncnc2nc[nH]c12` [6-Methylmercaptopurine], for which the LC retention time was found to be 1.49 min.

For `CC(O)C(O)C1=Nc2c(nc(N)[nH]c2=O)NC1` (stereo not given) [7,8-Dihydrobiopterin], the LC retention time is 7.18 min.

For `Cn1c[n+](C2OC(CO)C(O)C2O)c2nc(N)[nH]c(=O)c21` (stereo not given) [7-Methylguanosine], the LC retention time was 7.34 min.

`O=[N+]([O-])c1cccc2cn[nH]c12` [7-Nitroindazole]: the LC retention time is 1.03 min.

In the case of `Nc1ncnc2c1[nH]c(=O)n2C1CC(O)C(CO)O1` (stereo not given) [8-Oxo-2-deoxyadenosine], the LC retention time worked out at 5.11 min.

Regarding `CC12CCC3c4ccc(O)cc4CCC3C1CC(OC1OC(C(=O)O)C(O)C(O)C1O)C2O` (stereo not given) [16-Glucuronide-estriol], the LC retention time turned out to be 6.49 min.

Take `O=C(O)CC1C(=O)Nc2ccccc21` (stereo not given) [(2-oxo-2,3-dihydro-1H-indol-3-yl)acetic acid]: the LC retention time is 2.02 min.

Take `CCCC(=O)OC(CC(=O)[O-])C[N+](C)(C)C` [(R)-Butyrylcarnitine]: the LC retention time stood at 5.77 min.

For `CN1C(=O)CCC1c1ccc[n+]([O-])c1` [(S)-Cotinine N-oxide], the LC retention time stood at 3.87 min.

For the compound `CN(C)C(N)=NCCCC(N)C(=O)O` (stereo not given) [ADMA], the LC retention time came out at 8.55 min.

Turning to `CCCCCC=CCC=CCC=CCC=CCCCC(=O)Nc1ccc(O)cc1` [AM 404], the LC retention time was determined as 0.97 min.

Regarding `CC(C)C1=CC2=CCC3C(C)(C(=O)O)CCCC3(C)C2CC1` (stereo not given) [Abietic acid], the LC retention time came out at 1.11 min.

As for `CC(C=CC1(O)C(C)=CC(=O)CC1(C)C)=CC(=O)O` (stereo not given) [Abscisic acid], the LC retention time is 1.33 min.

As for `CC1OC(OC2C(CO)OC(OC3C(CO)OC(O)C(O)C3O)C(O)C2O)C(O)C(O)C1NC1C=C(CO)C(O)C(O)C1O` (stereo not given) [Acarbose], the LC retention time was found to be 9.88 min.

`CC(=O)Nc1ccc(OC2OC(C(=O)O)C(O)C(O)C2O)cc1` (stereo not given) [Acetaminophen glucuronide]: the LC retention time came to 7.73 min.

Consider `CC(=O)Nc1ccc(O)cc1` [Acetaminophen], for which the LC retention time amounted to 1.37 min.

With `CC(=O)Nc1ccccc1` [Acetanilide], the LC retention time was found to be 1.11 min.

As for `CC(=O)NO` [Acetohydroxamic acid], the LC retention time was 2.94 min.

As to `CC(=O)OC(CC(=O)[O-])C[N+](C)(C)C` (stereo not given) [Acetylcarnitine], the LC retention time stood at 7.19 min.

For the compound `CC(=O)N1C(=O)C(=O)c2ccccc21` [Acetylisatin], the LC retention time amounted to 2.4 min.

As to `Cc1c2oc3c(C)ccc(C(=O)NC4C(=O)NC(C(C)C)C(=O)N5CCCC5C(=O)N(C)CC(=O)N(C)C(C(C)C)C(=O)OC4C)c3nc-2c(C(=O)NC2C(=O)NC(C(C)C)C(=O)N3CCCC3C(=O)N(C)CC(=O)N(C)C(C(C)C)C(=O)OC2C)c(N)c1=O` (stereo not given) [Actinomycin D], the LC retention time came out at 1.03 min.

Take `CC(=O)Nc1ccc(CC(=O)O)cc1` [Actrarit]: the LC retention time came out at 1.58 min.

`Nc1ncnc2nc[nH]c12` [Adenine]: the LC retention time was 4.71 min.

`Nc1ncnc2c1ncn2C1OC2COP(=O)(O)OC2C1O` (stereo not given) [Adenosine 3',5'-cyclic monophosphate]: the LC retention time was found to be 7.62 min.

As for `Nc1ncnc2c1ncn2C1OC(COP(=O)(O)O)C(O)C1O` (stereo not given) [Adenosine 5'-monophosphate], the LC retention time worked out at 8.88 min.
